Source: patent US20160015786A1, “MOBILIZING AGENTS AND USES THEREFOR” (MATER MEDICAL RESEARCH INSTITUTE LIMITED, priority 2013, published 2016)

Experiments:
HIF-1α protein = assay: Western blot of bone marrow cell lysates for HIF-1α stabilization in treated mice; type: in vivo, C57Bl/6 mice; details: FIG. 1A
From the text: FIGS. 1A, 1B, 1C, and 1D are graphical representations showing the effect of Compound X and G-CSF on HIF-1α protein and CFC mobilization. (1A) Western blot analysis of bone marrow (BM) cell lysates from mice treated with saline (Saline), with Compound X for 3 days (X3), with G-CSF for 2 days (G2) or with both Compound X and G-CSF (G2X3) for presence of HIF-1α and β-actin. Each lane represents a different mouse. […] (1D) Time-course numbers of CFC per mL blood or per spleen for mice treated with Plerixafor with or without Compound X. Mice were treated with Plerixafor for 1 hour (P1) together with Compound X for 1, 2, 3 or 4 days (P1X1-P1X4). Data are mean±SD of 6 mice per condition. * p<0.05; ** p<0.01; *** p<0.001.
To evaluate whether pharmacological stabilization of HIF-1α protein would enhance HSC mobilization in response to G-CSF, C57Bl/6 mice were treated with recombinant human G-CSF (rhuG-CSF) twice daily for 1-3 days together with a PHD inhibitor, Compound X, daily for 3 days. […] Mobilization of colony-forming cells (CFCs) to the blood and spleen were measured (FIG. 1B). […] To assess the optimum duration of Compound X treatment, Compound X was administered for 1-4 days and G-CSF for the last 2 days before tissue sampling (FIG. 1C).
All procedures were approved by the animal experimentation ethics committee of the University of Queensland. […]

[1] = system: competitive repopulating HSC; assay: Long-term competitive repopulation assay of mobilized blood; type: in vivo, C57BL/6 mice
Procedure: FIGS. 3A and 3B are graphical representations showing that Compound X synergizes with G-CSF and Plerixafor to enhance mobilization of competitive repopulating HSCs. CD45.2^+ mice were mobilized with G-CSF for 2 or 4 days with G-CSF alone (filled circles), with G-CSF in combination with Plerixafor for 1 hr (filled triangles), with Compound X for 3 days (filled squares) or with both Plerixafor, 1 hr, and Compound X, 3 days (filled inverted triangles). Blood (20 μL) was transplanted in lethally irradiated recipients together with 200,000 competitive BM cells from CD45.1^+ mice. Proportion of blood CD45.2+ leukocytes at 16 weeks post-transplantation and number of repopulating units per mL of mobilized blood calculated from donor chimerism at 16 weeks post-transplantation from (3A) 2 days treatment with G-CSF and (3B) 4 days treatment with G-CSF. Each dot is a result from one recipient mouse, bars are average. *: p<0.05; ** 0.001<p<0.01; *** p<0.001.
This synergistic increase in HSC mobilization was further confirmed in long-term competitive repopulation assays following transplantation of 20 μL mobilized blood in competition with 2×10^5 BM cells from congenic donors. […] The number of mobilized long-term competitive repopulating HSC (measured 16 weeks post-transplant) doubled after treatment with 2 days G-CSF+1 h Plerixafor+3 days Compound X (G2P1X3) compared to G-CSF+Plerixafor (G2P1, p<0.05; FIG. 3A). […] The addition of Compound X to G-CSF (G4X3) increased 6-fold the number of mobilized repopulating units compared to G-CSF (G4) alone (P<0.001; FIG. 3B). The combination of Compound X with G-CSF and Plerixafor (G4P1X3) increased mobilization of repopulating units 3-fold compared to G-CSF+Plerixafor (G4P1) alone (P<0.001; FIG. 3B).
The content of mobilized blood samples in competitive repopulating HSC was determined in competitive repopulation assays as previously described (12,17). The day prior to blood harvest, recipient congenic B6.SJL CD45.1^+ female mice were lethally irradiated with 11.0Gy in two split doses 4 hours apart. 50 μL blood samples from 6 mobilized CD45.2^+ C57BL/6 donor mice were pooled within each treatment group and 20 μL blood aliquots were taken from this pool and mixed with 200,000 competitive whole BM cells from untreated B6.SJL CD45.1^+ in a total volume of 200 μL saline, and injected retro-orbitally into each lethally irradiated recipient. Recipients were maintained with antibiotics for the first 3 weeks post-transplant and tail bled 8, 12 and 16 weeks post-transplant to determine CD45.2 (test donor blood) versus CD45.1 (competitive whole BM cells) chimerism in myeloid, B and T lineages by flow cytometry using CD45.1-PE, CD45.2-allophycocyanin (APC), CD3-FITC, B220-allophycocyanin (APC)-cyanin (CY) 7, CD11b-PECY7, Ly6G-Pacific Blue. Content in repopulating units (RU) was calculated as previously described (18-19).

## O=C(O)CNC(=O)c1ncc2cc(Sc3ccccc3)ccc2c1O [Compound X, [(4-Hydroxy-7-phenylsulfanyl-isoquinoline-3-carbonyl)-amino]-acetic acid]
HIF-1α protein; Compound X daily for 3 days
  stabilization of HIF-1α protein in bone marrow leukocytes: stabilization of HIF-1α protein was demonstrated
HIF-1α protein; Compound X in combination with G-CSF
  stabilization of HIF-1α protein compared to G-CSF alone: significantly increased
[1]; 16 weeks post-transplant, G2P1X3 vs G2P1, p<0.05, FIG. 3A
  number of mobilized long-term competitive repopulating HSC versus G-CSF+Plerixafor: doubled
[1]; 2 days G-CSF+Plerixafor+Compound X (G2P1X3) vs G2P1, p<0.01
  competitive repopulating HSC mobilized (CD45.2/CD45.1 chimerism) versus G-CSF+Plerixafor: 6 fold
[1]; Compound X in combination with G-CSF and Plerixafor (discussion)
  number of long-term repopulating HSC per mL of blood: tripled
[1]; G4P1X3 vs G4P1, P<0.001, FIG. 3B
  increase in mobilization of repopulating units versus G-CSF+Plerixafor: 3 fold
[1]; G-CSF 4 days + Compound X (G4X3) vs G4, P<0.001, FIG. 3B
  increase in number of mobilized repopulating units versus G-CSF alone: 6 fold
